In ChEMBL document CHEMBL1201862, “PubChem BioAssay data set” (2004):
Values joined by “and” are separate entries in the source; they are usually repeats but may differ in a detail not shown here. Identical values can stand only once. Active and inactive are the calls of the source.

Assays:
[1] = target: UDP-galactopyranose mutase (Mycobacterium tuberculosis, UniProt P9WIQ1); assay: Inhibitors of Mycobacterium tuberculosis UDP-galactopyranose mutase (UGM) enzyme Measured in Biochemical System Using Plate Reader - 2105-02_Inhibitor_Dose_CherryPick_Activity. [Related pubchem assays (depositor defined):AID504439]
[2] = target: Protein-tyrosine kinase 2-beta (Homo sapiens, UniProt Q14289);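 further: potency of inhibitors of PYK2 kinase phosphorylation of poly-GT substrate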
[3] = target: T1, Voltage-gated N-type calcium channel alpha-1B subunit/Amyloid beta A4 precursor protein-binding family A member 1 (Homo sapiens, UniProt Q00975+Q02410); type: protein assay
Albumin = Albumin (Bos taurus, UniProt P02769); assay: Counterscreen for inhibitors of T-cell receptor (TCR)-CD3 interaction: Fluorescence-based biochemical high throughput dose response assay to identify inhibitors of T-cell receptor (TCR)-CD3 interaction using a TAMRA-labeled BSA probe.; type: functional
[4] = target: T2, Probable nicotinate-nucleotide adenylyltransferase (Staphylococcus aureus (strain N315), UniProt P65502); type: functional, Staphylococcus aureus subsp. aureus N315; conditions: read-out: IC50_Mean;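 on IC50 Mean: confirmatory dose-response retesting of NadD inhibitor hits first found in an ultra-high-throughput screen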
SUMO-activating enzyme [5] = target: T3, SUMO-activating enzyme (Homo sapiens, UniProt Q9UBT2); assay: blockers of SAE1/SAE2–UBC9 SUMO transfer – biochemical, HTRF, uHTS, primary screen (AID 2006); type: protein-complex assay
[6] = target: T4, Rac GTPase-activating protein 1 (Homo sapiens, UniProt Q9H0H5); assay: blockers of MgcRacGAP-driven Rac1 GTP hydrolysis – biochemical, ADP Hunter fluorescence, primary and confirmatory, confirmation (AID 624330); type: functional
T4 sequence (Q9H0H5 whole entry): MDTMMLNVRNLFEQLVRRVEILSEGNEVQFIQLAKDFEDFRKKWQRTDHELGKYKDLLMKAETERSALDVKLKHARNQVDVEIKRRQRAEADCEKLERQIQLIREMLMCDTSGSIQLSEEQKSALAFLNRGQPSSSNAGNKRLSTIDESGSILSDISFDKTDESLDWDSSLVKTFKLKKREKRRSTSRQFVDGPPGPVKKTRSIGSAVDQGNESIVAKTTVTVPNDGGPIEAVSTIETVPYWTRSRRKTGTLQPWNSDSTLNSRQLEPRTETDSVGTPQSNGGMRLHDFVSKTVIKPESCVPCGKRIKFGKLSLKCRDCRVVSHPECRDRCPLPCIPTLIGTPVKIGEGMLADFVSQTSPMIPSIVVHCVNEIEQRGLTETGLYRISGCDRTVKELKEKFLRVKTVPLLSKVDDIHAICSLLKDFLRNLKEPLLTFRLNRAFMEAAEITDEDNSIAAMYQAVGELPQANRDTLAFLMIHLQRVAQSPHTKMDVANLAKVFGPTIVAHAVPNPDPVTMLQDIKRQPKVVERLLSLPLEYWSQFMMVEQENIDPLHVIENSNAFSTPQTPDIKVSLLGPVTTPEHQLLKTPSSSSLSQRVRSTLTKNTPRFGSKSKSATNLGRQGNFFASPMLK

[7] = target: T1, Voltage-gated N-type calcium channel alpha-1B subunit/Amyloid beta A4 precursor protein-binding family A member 1; type: protein assay; remark: listed apart in the source
[8] = target: DNA (cytosine-5)-methyltransferase 1 (Homo sapiens, UniProt P26358); assay: inhibition of DNA methylation by DNMT1 – biochemical, fluorescent molecular beacon, confirmation (AID 602386); type: functional
[9] = target: T1, Voltage-gated N-type calcium channel alpha-1B subunit/Amyloid beta A4 precursor protein-binding family A member 1; assay: disruptors of Mint-PDZ/N-type channel peptide interaction – biochemical, HTRF, set 2, SAR follow-up (AID 434980); type: functional
Genome polyprotein = Genome polyprotein (Hepatitis C virus, UniProt Q2Q167); assay: disruption of hepatitis C core self-association – biochemical, TR-FRET, dose response (AID 2159); set-up: species or system Hepacivirus hominis;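 further: blocks dimerization of HCV core protein measured by TR-FRET between tagged core106 pairs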
SUMO E1/E2 = SUMO E1/E2 (Homo sapiens, UniProt P63279+Q9UBE0+Q9UBT2); assay: SAR analysis of SUMOylation using HTRF in an in-Vitro dose response assay. [Related pubchem assays (depositor defined):AID2006, AID2011, AID2018, AID2069, AID2658]; type: functional
Bcl-2-like protein 10 = target: T5, Bcl-2-like protein 10 (Homo sapiens, UniProt Q9HD36); assay: Bcl-B/TR3 peptide binding disruption – biochemical, fluorescence polarization, FITC-TR3 peptide, selectivity assay for Bfl-1 inhibitor project, primary screen (AID 748);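 further: fluorescence polarization from a fluorescein-labelled TR3 peptide binding purified Bcl-B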
T5 sequence (Q9HD36 whole entry): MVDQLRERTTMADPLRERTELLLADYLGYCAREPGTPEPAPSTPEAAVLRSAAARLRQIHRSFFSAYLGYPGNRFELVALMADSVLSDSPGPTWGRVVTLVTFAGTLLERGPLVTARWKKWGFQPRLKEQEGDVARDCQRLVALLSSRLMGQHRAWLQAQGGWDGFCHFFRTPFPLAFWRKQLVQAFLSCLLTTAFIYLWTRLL

Protein Rev = Protein Rev (Human immunodeficiency virus type 1 group M subtype B (isolate WMJ22)(HIV-1), UniProt P05866); assay: inhibitors of Rev protein–RRE RNA complex – biochemical, protein-RNA interaction, dose response (AID 842); set-up: species or system Human immunodeficiency virus 1
[10] = target: T1, Voltage-gated N-type calcium channel alpha-1B subunit/Amyloid beta A4 precursor protein-binding family A member 1; assay: disruptors of Mint-PDZ/N-type channel peptide interaction – biochemical, HTRF, SAR follow-up (AID 2489); type: functional
SUMO-activating enzyme [11] = target: T3, SUMO-activating enzyme; assay: blockers of UBC9-mediated SUMO conjugation – biochemical, AlphaScreen, SUMOylation inhibitor project, confirmation (AID 2018); type: functional
[12] = target: T2, Probable nicotinate-nucleotide adenylyltransferase; type: functional, Staphylococcus aureus subsp. aureus N315
Candida albicans = assay: antifungal activity against resistant Candida strain – CaCi-8, fluconazole, Alamar Blue, dry powder, dose response (AID 488807); type: functional, organism-based

T1 sequence (Q00975 whole entry): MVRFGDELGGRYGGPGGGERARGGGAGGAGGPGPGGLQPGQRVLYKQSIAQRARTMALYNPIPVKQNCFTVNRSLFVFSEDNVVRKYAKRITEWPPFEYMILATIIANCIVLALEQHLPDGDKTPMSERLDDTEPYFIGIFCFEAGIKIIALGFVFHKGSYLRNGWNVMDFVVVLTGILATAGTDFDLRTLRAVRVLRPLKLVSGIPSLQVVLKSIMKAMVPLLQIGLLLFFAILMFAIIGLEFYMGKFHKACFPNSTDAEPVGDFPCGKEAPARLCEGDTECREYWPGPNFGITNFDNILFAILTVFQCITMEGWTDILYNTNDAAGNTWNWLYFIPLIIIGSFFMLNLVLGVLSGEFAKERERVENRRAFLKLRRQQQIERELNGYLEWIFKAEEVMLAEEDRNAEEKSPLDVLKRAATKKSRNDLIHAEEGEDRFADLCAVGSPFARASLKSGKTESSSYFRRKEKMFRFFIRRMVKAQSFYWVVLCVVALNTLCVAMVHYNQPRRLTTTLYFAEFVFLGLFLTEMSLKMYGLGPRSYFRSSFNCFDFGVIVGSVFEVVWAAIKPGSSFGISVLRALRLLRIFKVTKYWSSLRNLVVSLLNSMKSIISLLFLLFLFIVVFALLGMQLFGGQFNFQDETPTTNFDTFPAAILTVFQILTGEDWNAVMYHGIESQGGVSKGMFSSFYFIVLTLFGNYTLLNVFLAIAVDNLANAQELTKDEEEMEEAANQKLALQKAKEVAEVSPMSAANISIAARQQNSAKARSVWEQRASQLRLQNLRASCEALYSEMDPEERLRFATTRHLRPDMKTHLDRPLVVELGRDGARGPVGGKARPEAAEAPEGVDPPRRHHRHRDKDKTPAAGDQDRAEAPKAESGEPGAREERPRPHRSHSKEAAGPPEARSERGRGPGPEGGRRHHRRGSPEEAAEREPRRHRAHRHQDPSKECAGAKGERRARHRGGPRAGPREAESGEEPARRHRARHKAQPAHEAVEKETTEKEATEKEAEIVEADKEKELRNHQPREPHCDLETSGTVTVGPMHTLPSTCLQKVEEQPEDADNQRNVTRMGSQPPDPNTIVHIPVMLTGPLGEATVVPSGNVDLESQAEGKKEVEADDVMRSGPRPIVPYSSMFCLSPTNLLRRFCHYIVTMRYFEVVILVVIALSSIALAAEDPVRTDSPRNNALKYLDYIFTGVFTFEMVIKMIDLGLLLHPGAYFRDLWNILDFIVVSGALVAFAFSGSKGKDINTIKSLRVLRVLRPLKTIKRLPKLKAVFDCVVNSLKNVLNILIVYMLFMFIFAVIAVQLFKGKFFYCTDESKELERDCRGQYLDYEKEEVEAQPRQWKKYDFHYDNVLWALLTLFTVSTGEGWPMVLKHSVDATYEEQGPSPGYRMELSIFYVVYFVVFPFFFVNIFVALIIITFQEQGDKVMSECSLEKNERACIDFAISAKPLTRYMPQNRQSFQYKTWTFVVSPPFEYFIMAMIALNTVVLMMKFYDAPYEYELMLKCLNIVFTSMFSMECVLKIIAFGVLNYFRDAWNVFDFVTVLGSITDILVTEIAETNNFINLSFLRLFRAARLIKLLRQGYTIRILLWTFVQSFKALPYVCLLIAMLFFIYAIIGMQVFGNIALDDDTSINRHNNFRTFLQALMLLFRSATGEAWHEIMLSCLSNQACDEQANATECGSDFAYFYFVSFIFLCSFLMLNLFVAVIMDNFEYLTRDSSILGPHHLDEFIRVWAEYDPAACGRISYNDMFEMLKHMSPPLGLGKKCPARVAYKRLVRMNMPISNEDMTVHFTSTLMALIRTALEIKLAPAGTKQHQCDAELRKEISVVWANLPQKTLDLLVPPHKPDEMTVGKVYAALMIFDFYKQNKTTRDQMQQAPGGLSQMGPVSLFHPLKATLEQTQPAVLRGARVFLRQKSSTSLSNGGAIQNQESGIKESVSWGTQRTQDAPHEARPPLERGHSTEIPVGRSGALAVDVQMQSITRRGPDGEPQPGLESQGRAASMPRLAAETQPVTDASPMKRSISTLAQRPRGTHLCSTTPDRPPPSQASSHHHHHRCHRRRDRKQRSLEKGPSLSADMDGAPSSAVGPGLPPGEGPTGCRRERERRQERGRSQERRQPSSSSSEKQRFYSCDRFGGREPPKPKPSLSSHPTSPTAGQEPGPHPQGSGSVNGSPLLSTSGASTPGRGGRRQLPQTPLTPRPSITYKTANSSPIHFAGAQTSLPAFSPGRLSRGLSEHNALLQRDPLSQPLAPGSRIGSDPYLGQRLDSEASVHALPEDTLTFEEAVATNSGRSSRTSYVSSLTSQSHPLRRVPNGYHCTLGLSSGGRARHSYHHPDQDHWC
T1 sequence (Q02410 whole entry): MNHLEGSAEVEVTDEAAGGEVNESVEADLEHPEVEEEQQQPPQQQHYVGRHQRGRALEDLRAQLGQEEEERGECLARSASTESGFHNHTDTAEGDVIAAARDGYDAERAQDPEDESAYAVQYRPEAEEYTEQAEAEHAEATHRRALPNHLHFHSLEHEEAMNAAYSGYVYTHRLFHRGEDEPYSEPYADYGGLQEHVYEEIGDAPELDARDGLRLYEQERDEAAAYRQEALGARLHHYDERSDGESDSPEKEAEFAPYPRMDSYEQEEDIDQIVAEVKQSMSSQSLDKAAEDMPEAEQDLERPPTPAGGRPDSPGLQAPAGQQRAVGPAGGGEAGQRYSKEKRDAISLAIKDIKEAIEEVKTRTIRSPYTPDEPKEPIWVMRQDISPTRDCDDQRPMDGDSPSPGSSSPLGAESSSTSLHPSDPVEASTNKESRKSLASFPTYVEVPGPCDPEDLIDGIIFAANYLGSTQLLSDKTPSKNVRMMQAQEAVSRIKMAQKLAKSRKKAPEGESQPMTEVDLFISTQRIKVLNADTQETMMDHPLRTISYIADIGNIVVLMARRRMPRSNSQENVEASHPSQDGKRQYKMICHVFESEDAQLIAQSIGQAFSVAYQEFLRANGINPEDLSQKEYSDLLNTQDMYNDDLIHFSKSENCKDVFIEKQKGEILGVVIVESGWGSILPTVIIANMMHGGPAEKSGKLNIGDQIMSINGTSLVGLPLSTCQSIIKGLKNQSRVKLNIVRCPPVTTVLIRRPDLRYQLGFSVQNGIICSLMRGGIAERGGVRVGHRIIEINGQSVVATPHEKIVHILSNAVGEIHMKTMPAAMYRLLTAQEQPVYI
SUMO E1/E2, sequence (Q9UBE0 whole entry): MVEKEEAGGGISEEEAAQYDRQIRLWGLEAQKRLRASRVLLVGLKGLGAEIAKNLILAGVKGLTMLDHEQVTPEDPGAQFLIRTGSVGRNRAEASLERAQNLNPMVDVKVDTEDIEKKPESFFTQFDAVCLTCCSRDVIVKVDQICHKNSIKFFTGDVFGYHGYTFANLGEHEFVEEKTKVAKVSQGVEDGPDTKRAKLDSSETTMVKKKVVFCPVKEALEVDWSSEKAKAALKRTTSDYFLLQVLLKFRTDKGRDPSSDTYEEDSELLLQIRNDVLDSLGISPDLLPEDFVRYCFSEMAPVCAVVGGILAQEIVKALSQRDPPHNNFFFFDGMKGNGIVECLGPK
SUMO E1/E2, sequence (Q9UBT2 whole entry): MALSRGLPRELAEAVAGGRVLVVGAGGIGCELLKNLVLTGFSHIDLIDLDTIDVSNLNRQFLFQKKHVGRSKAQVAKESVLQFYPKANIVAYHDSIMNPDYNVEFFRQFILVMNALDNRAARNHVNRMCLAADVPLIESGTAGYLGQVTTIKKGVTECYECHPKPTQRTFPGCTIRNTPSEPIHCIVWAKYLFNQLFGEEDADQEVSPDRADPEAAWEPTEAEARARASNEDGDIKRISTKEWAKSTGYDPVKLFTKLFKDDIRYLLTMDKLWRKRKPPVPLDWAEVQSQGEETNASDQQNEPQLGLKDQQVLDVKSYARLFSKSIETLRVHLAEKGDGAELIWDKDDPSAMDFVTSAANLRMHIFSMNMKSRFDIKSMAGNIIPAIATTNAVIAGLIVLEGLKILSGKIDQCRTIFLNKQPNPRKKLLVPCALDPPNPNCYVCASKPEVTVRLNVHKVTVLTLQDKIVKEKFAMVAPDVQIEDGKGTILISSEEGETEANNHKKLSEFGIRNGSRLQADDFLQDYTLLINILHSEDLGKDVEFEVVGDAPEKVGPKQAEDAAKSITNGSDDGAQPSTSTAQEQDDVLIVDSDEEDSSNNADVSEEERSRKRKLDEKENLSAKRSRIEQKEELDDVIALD
SUMO E1/E2, sequence (P63279 whole entry): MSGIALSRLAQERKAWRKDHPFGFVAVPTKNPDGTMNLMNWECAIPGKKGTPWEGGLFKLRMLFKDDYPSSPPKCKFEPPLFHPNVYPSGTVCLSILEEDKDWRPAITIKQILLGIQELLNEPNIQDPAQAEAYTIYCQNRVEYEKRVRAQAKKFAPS
T3 sequence (Q9UBE0 whole entry): as the sequence (Q9UBE0 whole entry) above
T3 sequence (Q9UBT2 whole entry): as the sequence (Q9UBT2 whole entry) above
T2 sequence (P65502 whole entry): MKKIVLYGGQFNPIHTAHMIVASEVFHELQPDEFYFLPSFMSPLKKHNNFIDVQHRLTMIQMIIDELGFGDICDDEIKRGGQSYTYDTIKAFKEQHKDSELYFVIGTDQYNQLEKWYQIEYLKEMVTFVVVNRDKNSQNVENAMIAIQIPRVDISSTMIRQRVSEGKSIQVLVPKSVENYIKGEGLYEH
Genome polyprotein, sequence (Q2Q167 whole entry): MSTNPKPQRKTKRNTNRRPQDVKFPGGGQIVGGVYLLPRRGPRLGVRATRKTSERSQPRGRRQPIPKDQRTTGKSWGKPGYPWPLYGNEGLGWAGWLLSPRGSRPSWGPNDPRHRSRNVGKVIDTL
Protein Rev, sequence (P05866 whole entry): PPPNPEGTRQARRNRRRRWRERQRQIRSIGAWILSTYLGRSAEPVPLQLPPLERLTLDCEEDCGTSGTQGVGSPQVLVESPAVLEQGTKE

CC(C)(C)c1cc[n+](-c2[n-]c(=O)sc2C=NN=C(S)Nc2ccccc2)cc1
AC50 [1]: 65.5 µM (active)

O=C(N/N=C/c1ccc(F)cc1)c1cc(-c2ccco2)nc2ccccc12
IC50 [2]: 2.01 µM (active) | IC50 [3]: 8.83 µM (active) | IC50 (Albumin): > 94.1 µM (inactive) | IC50 [4]: 27.1 µM (active) | IC50 (SUMO-activating enzyme [5]): 10.6 µM (active) | IC50 [6]: 108 µM (active) | IC50 [7]: 6.44 µM (active) | IC50 [8]: 5.57 µM (active) | IC50 [9]: 5.57 µM (active) | IC50 (Genome polyprotein): > 49.8 µM (not active) | IC50 (SUMO E1/E2): 4.33 µM (active) and 8.06 µM (active) | IC50 (Bcl-2-like protein 10): 2.97 µM (active) | IC50 (Protein Rev): > 79.4 µM (not active) | IC50 [10]: 14.6 µM (active) | IC50 (SUMO-activating enzyme [11]): 2.28 µM (active) | IC50 [12]: 10.8 µM (active)

COC(=O)Cn1nc(-c2ccc(Cl)cc2)c2ccccc21
AC50 (Candida albicans): 2.16 µM (active)
